Reference: PMC3914206

Assays:
Format in all cases: binding
Details in all cases: Compound Concentration 10 µM
panel of 442 kinases [1] = target: T1, panel of 442 kinases (Homo sapiens, UniProt O14936)
T1 construct: purchased KINOMEscan
T1 sequence (O14936 1-926): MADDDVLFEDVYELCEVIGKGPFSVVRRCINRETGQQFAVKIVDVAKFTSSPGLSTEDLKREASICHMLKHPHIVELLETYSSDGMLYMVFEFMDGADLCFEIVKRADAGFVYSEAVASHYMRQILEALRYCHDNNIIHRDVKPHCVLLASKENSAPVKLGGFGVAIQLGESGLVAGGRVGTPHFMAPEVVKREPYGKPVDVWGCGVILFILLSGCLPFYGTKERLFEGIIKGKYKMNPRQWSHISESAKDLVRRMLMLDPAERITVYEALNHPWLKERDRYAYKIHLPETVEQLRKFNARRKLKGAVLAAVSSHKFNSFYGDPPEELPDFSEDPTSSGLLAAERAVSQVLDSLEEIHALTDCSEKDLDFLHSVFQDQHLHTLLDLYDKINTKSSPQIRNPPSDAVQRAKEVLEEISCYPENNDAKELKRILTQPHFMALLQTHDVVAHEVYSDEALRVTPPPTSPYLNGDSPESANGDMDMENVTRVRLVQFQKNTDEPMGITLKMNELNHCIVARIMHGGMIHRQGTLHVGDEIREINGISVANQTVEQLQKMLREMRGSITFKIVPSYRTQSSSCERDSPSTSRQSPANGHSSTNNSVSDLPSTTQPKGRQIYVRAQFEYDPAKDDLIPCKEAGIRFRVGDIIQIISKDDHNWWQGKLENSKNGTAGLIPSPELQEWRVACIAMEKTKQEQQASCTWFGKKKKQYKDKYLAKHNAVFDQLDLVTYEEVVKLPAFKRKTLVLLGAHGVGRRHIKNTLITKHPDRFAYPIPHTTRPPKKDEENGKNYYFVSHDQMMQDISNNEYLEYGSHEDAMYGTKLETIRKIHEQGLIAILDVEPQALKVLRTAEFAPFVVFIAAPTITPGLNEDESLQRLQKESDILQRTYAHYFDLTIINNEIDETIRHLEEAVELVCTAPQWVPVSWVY
Text: (§1) We assessed the selectivity of members of this scaffold using the KINOMEscan methodology across a near comprehensive panel of 442 kinases [[18,27]].

panel of 442 kinases [2] = target: T2, panel of 442 kinases (Homo sapiens, UniProt P00519, E255K)
T2 construct: purchased KINOMEscan
Text: as §1

panel of 442 kinases [3] = target: T3, panel of 442 kinases (Homo sapiens, UniProt Q9BUB5)
T3 construct: purchased KINOMEscan
Text: as §1

T3 sequence (Q9BUB5 whole entry): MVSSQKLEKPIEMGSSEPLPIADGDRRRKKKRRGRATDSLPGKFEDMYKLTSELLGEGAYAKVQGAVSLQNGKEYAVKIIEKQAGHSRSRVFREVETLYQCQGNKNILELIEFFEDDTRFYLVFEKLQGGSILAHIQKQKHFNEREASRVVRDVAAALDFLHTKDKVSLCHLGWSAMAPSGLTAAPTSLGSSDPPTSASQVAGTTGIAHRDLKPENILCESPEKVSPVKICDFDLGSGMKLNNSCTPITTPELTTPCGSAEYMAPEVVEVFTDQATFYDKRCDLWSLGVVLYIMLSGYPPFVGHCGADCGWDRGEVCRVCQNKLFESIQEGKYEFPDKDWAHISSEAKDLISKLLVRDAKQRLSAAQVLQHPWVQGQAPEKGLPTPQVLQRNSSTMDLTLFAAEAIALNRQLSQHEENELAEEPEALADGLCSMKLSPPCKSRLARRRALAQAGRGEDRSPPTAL
T2 sequence (P00519 whole entry E255K): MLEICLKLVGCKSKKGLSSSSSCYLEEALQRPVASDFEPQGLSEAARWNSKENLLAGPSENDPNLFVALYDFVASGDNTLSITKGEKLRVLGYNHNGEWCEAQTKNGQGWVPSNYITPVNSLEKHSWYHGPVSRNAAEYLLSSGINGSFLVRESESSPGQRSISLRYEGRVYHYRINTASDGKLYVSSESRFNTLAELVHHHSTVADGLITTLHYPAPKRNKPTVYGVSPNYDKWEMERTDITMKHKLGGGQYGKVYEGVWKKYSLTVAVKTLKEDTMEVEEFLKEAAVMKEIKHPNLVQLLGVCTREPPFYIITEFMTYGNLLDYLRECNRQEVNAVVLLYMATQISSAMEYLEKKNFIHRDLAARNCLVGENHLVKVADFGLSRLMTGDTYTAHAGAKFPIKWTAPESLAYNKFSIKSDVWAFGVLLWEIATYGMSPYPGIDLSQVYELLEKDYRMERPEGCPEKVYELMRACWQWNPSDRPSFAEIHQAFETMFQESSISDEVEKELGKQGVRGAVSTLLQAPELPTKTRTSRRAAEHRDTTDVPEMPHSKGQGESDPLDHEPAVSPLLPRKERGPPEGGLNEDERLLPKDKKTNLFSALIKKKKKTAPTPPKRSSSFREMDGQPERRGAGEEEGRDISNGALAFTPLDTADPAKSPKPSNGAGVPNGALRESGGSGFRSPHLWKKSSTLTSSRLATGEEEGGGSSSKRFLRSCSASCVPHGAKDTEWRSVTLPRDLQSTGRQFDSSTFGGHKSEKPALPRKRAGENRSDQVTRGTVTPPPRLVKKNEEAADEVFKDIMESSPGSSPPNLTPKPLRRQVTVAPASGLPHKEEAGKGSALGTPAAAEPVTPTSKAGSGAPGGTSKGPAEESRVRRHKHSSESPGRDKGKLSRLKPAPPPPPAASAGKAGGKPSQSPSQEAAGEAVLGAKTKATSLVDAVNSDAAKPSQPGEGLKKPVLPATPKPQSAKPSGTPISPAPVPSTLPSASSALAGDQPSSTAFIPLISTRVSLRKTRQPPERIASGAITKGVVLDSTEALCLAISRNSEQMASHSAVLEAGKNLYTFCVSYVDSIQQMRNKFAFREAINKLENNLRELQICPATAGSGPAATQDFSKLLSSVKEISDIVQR

Structure (SMILES)	KINOMEscan: CASK (panel of 442 kinases [1])	KINOMEscan: ABL1(E255K)-phosphorylated (panel of 442 kinases [2])	KINOMEscan: MKNK1 (panel of 442 kinases [3])
COc1cc(C(=O)N2CCC(N3CCN(C)CC3)CC2)ccc1Nc1ncc2c(n1)N(C)c1ccccc1C(=O)N2C [15 (LRRK2-IN-1)]	85	80	50
COc1cc(C(=O)N2CCC(N3CCN(C)CC3)CC2)ccc1Nc1ncc2c(n1)N1CCc3cccc(c31)C(=O)N2C [Compound 24]	100		
COc1cc(C(=O)N2CCC(N3CCN(C)CC3)CC2)ccc1Nc1ncc2c(n1)N(C1CCCC1)c1ccccc1C(=O)N2C [Compound 25, 11-cyclopentyl-2-((2-methoxy-4-(4-(4-methylpiperazin-1-yl)piperidine-1-carbonyl)phenyl)amino)-5-methyl-5H-benzo[e]pyrimido[5,4-b][1,4]diazepin-6(11H)-one]	100	92	100
CCOc1cc(C(=O)N2CCC(N3CCN(C)CC3)CC2)ccc1Nc1ncc2c(n1)N(C1CCCC1)c1ccccc1C(=O)N2C [Compound 26]	98	100	96
